The text below walks through data of patent publication US20250059171A1 (Hoffmann-La Roche Inc., priority 2021, published 2025).

Broadly, the IC50 is the point on the concentration scale where inhibition reaches its midpoint.

One test addresses SARS-CoV 3CLpro (Severe acute respiratory syndrome coronavirus, UniProt P0C6X7). The experiment in a line: biochemical.
The target of a further test is MERS-CoV 3CLpro (Middle East respiratory syndrome-related coronavirus, UniProt K9N7C7). The experiment in a line: biochemical.
For a further test, the target named is SARS-CoV-2 3CLpro (Severe acute respiratory syndrome coronavirus 2, UniProt P0DTD1). The test can be described thus: biochemical.
In a further test the target is HCoV-229E 3CLpro (Human coronavirus 229E, UniProt P0C6X1). The test can be described thus: HCoV-229E 3CLpro inhibition assay (FRET). It is filed as biochemical.
HCoV-229E 3CLpro, sequence (P0C6X1 2966-3267): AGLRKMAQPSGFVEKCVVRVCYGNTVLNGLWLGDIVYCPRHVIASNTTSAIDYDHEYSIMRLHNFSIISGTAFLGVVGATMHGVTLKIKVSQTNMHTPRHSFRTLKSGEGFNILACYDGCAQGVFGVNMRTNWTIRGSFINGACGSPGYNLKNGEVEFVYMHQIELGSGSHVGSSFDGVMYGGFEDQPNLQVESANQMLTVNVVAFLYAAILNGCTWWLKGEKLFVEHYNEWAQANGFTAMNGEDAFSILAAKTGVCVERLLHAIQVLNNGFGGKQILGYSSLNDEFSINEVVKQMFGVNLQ

MERS-CoV 3CLpro, sequence (K9N7C7 3248-3553): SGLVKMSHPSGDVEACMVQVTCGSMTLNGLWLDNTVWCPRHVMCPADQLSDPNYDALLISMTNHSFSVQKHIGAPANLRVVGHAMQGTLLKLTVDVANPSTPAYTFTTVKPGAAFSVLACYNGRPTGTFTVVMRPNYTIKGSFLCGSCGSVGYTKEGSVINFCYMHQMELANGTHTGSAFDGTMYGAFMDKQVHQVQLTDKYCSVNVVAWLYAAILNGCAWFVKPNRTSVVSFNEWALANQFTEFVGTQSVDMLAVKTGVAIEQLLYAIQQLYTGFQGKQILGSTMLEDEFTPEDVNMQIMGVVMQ

In the case of `CC[C@H](C)[C@H](NC(=O)C(F)F)C(=O)N1C[C@H]2[C@@H]([C@H]1C(=O)NN(C[C@@H]1CCNC1=O)C(=O)[C@H](F)Cl)C2(C)C` [Example 51, N-[(1S,2S)-1-[(1R,2S,5S)-2-[[[(2R)-2-chloro-2-fluoro-acetyl]-[[(3S)-2-oxopyrrolidin-3-yl]methyl]amino]carbamoyl]-6,6-dimethyl-3-azabicyclo[3.1.0]hexane-3-carbonyl]-2-methyl-butyl]-2,2-difluoro-acetamide], the IC50 at SARS-CoV 3CLpro was 10 nM; at MERS-CoV 3CLpro, 59 nM; against SARS-CoV-2 3CLpro, 7 nM; on HCoV-229E 3CLpro, 21 nM.
Turning to `CC[C@H](C)[C@H](NC(=O)C(C)(C)C)C(=O)N1C[C@H]2[C@@H]([C@H]1C(=O)NN(C[C@@H]1CCNC1=O)C(=O)[C@H](F)Cl)C2(C)C` [Example 52, N-[(1S,2S)-1-[(1R,2S,5S)-2-[[[(2R)-2-chloro-2-fluoro-acetyl]-[[(3S)-2-oxopyrrolidin-3-yl]methyl]amino]carbamoyl]-6,6-dimethyl-3-azabicyclo[3.1.0]hexane-3-carbonyl]-2-methyl-butyl]-2,2-dimethyl-propanamide], the IC50 on SARS-CoV 3CLpro turned out to be 15 nM; against MERS-CoV 3CLpro it was 57 nM; against SARS-CoV-2 3CLpro it was 10 nM; against HCoV-229E 3CLpro, 22 nM.
For `CC[C@H](C)[C@H](NC(=O)C(C)C)C(=O)N1C[C@H]2[C@@H]([C@H]1C(=O)NN(C[C@@H]1CCNC1=O)C(=O)[C@H](F)Cl)C2(C)C` [Example 54, N-[(1S,2S)-1-[(1R,2S,5S)-2-[[[(2R)-2-chloro-2-fluoro-acetyl]-[[(3S)-2-oxopyrrolidin-3-yl]methyl]amino]carbamoyl]-6,6-dimethyl-3-azabicyclo[3.1.0]hexane-3-carbonyl]-2-methyl-butyl]-2-methyl-propanamide], in that order: 12 nM, 56 nM, 9 nM and 24 nM.
The like results for `CC[C@H](C)[C@H](NC(=O)C(C)(F)F)C(=O)N1C[C@H]2[C@@H]([C@H]1C(=O)NN(C[C@@H]1CCNC1=O)C(=O)[C@H](F)Cl)C2(C)C` [Example 55, N-[(1S,2S)-1-[(1R,2S,5S)-2-[[[(2R)-2-chloro-2-fluoro-acetyl]-[[(3S)-2-oxopyrrolidin-3-yl]methyl]amino]carbamoyl]-6,6-dimethyl-3-azabicyclo[3.1.0]hexane-3-carbonyl]-2-methyl-butyl]-2,2-difluoro-propanamide] were, in that order, 14 nM, 56 nM, 8 nM and 21 nM.
With `CC[C@H](C)[C@H](NC(=O)C1CC1)C(=O)N1C[C@H]2[C@@H]([C@H]1C(=O)NN(C[C@@H]1CCNC1=O)C(=O)[C@H](F)Cl)C2(C)C` [Example 57, N-[(1S,2S)-1-[(1R,2S,5S)-2-[[[(2R)-2-chloro-2-fluoro-acetyl]-[[(3S)-2-oxopyrrolidin-3-yl]methyl]amino]carbamoyl]-6,6-dimethyl-3-azabicyclo[3.1.0]hexane-3-carbonyl]-2-methyl-butyl]cyclopropanecarboxamide], the IC50 was determined as 13 nM against SARS-CoV 3CLpro, 62 nM on MERS-CoV 3CLpro, 11 nM at SARS-CoV-2 3CLpro and 20 nM against HCoV-229E 3CLpro.
As for `CC[C@H](C)[C@H](NC(=O)C1CC(F)(F)C1)C(=O)N1C[C@H]2[C@@H]([C@H]1C(=O)NN(C[C@@H]1CCNC1=O)C(=O)[C@H](F)Cl)C2(C)C` [Example 58, N-[(1S,2S)-1-[(1R,2S,5S)-2-[[[(2R)-2-chloro-2-fluoro-acetyl]-[[(3S)-2-oxopyrrolidin-3-yl]methyl]amino]carbamoyl]-6,6-dimethyl-3-azabicyclo[3.1.0]hexane-3-carbonyl]-2-methyl-butyl]-3,3-difluoro-cyclobutanecarboxamide], the half-maximal inhibitory concentration (IC50) was found to be 15 nM against SARS-CoV 3CLpro, 73 nM against MERS-CoV 3CLpro, 11 nM against SARS-CoV-2 3CLpro and 26 nM against HCoV-229E 3CLpro.
For `CC[C@H](C)[C@H](NC(=O)C1(F)CC1)C(=O)N1C[C@H]2[C@@H]([C@H]1C(=O)NN(C[C@@H]1CCNC1=O)C(=O)[C@H](F)Cl)C2(C)C` [Example 59, N-[(1S,2S)-1-[(1R,2S,5S)-2-[[[(2R)-2-chloro-2-fluoro-acetyl]-[[(3S)-2-oxopyrrolidin-3-yl]methyl]amino]carbamoyl]-6,6-dimethyl-3-azabicyclo[3.1.0]hexane-3-carbonyl]-2-methyl-butyl]-1-fluoro-cyclopropanecarboxamide], in that order: 17 nM, 62 nM, 7 nM and 21 nM.
The like results for `CC[C@H](C)[C@H](NC(=O)C1(C)CC1)C(=O)N1C[C@H]2[C@@H]([C@H]1C(=O)NN(C[C@@H]1CCNC1=O)C(=O)[C@H](F)Cl)C2(C)C` [Example 60, N-[(1S,2S)-1-[(1R,2S,5S)-2-[[[(2R)-2-chloro-2-fluoro-acetyl]-[[(3S)-2-oxopyrrolidin-3-yl]methyl]amino]carbamoyl]-6,6-dimethyl-3-azabicyclo[3.1.0]hexane-3-carbonyl]-2-methyl-butyl]-1-methyl-cyclopropanecarboxamide] were, in that order, 9 nM, 47 nM, 10 nM and 19 nM.
For `CC[C@H](C)[C@H](NC(=O)C(Cl)Cl)C(=O)N1C[C@H]2[C@@H]([C@H]1C(=O)NN(C[C@@H]1CCNC1=O)C(=O)[C@H](F)Cl)C2(C)C` [Example 61, 2,2-dichloro-N-[(1S,2S)-1-[(1R,2S,5S)-2-[[[(2R)-2-chloro-2-fluoro-acetyl]-[[(3S)-2-oxopyrrolidin-3-yl]methyl]amino]carbamoyl]-6,6-dimethyl-3-azabicyclo[3.1.0]hexane-3-carbonyl]-2-methyl-butyl]acetamide], in that order: 11 nM, 121 nM, 8 nM and 30 nM.
With `CC[C@H](C)[C@H](NC(=O)C(F)(F)C(F)(F)F)C(=O)N1C[C@H]2[C@@H]([C@H]1C(=O)NN(C[C@@H]1CCNC1=O)C(=O)[C@H](F)Cl)C2(C)C` [Example 62, N-[(1S,2S)-1-[(1R,2S,5S)-2-[[[(2R)-2-chloro-2-fluoro-acetyl]-[[(3S)-2-oxopyrrolidin-3-yl]methyl]amino]carbamoyl]-6,6-dimethyl-3-azabicyclo[3.1.0]hexane-3-carbonyl]-2-methyl-butyl]-2,2,3,3,3-pentafluoro-propanamide], the half-inhibitory concentration (IC50) came to 10 nM against SARS-CoV 3CLpro, 43 nM against MERS-CoV 3CLpro, 8 nM against SARS-CoV-2 3CLpro and 17 nM on HCoV-229E 3CLpro.
For the compound `CC[C@H](C)[C@H](NC(=O)C(F)(F)F)C(=O)N1C[C@H]2[C@@H]([C@H]1C(=O)NN(C[C@@H]1CCNC1=O)C(=O)[C@H](F)Cl)C2(C)C` [Example 63, N-[(1S,2S)-1-[(1R,2S,5S)-2-[[[(2R)-2-chloro-2-fluoro-acetyl]-[[(3S)-2-oxopyrrolidin-3-yl]methyl]amino]carbamoyl]-6,6-dimethyl-3-azabicyclo[3.1.0]hexane-3-carbonyl]-2-methyl-butyl]-2,2,2-trifluoro-acetamide], the IC50 was found to be 11 nM at SARS-CoV 3CLpro, 60 nM on MERS-CoV 3CLpro, 9 nM at SARS-CoV-2 3CLpro and 18 nM at HCoV-229E 3CLpro.
